Laboratory results as given in patent US10144746B2 (GLOBAL BLOOD THERAPEUTICS, INC., priority 2015, dated 2018).

target: Human plasma kallikrein (Homo sapiens (Human), UniProt P03952); assay: In vitro plasma kallikrein inhibition assay (chromogenic substrate D-Pro-Phe-Arg-pNa, absorbance at 405 nm, IC50 determination); format: biochemical; conditions: read-out: KLKB1 pIC50 (converted)
Sequence (P03952 391-638): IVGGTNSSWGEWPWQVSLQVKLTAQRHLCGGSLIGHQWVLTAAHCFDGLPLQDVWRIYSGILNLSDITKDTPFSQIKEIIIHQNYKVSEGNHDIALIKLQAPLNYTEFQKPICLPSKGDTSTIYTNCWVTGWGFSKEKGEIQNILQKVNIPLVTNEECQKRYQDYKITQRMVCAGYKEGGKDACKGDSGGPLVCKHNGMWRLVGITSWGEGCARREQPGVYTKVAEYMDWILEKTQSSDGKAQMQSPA
Sequence (P03952 20-390 partner): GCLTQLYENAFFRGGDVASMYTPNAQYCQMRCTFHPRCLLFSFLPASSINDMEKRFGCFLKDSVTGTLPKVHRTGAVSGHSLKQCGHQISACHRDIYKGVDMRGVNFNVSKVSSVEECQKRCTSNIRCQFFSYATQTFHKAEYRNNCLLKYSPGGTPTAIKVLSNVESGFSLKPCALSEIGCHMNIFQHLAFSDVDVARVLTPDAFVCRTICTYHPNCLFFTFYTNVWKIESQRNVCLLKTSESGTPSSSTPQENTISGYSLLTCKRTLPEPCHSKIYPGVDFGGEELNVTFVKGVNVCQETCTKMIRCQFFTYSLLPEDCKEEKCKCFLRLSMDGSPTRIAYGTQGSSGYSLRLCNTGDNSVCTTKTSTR

**Q.** For `Cc1cc2c(c(C)c1CNC(=O)c1ccc3c(c1)C1OC3c3ccc(Cn4cccn4)cc31)CNC2` (racemic) [Example 161, (±)-N-[(4,6-dimethyl-2,3-dihydro-1H-isoindol-5-yl)methyl]-12-[(1H-pyrazol-1-yl)methyl]-15-oxatetracyclo[6.6.1.0^2,^7.0^9,1^4]-pentadeca-2,4,6,9,11,13-hexaene-4-carboxamide], which IC50 is on record?
**A.** Its IC50 is 1290 nM.

**Q.** `Cc1cnn(Cc2ccc3c(c2)C2OC3c3ccc(C(=O)NCc4c(C)cc5c(c4C)CNC5)cc32)c1` (racemic) [Example 162, (±)-N-[(4,6-dimethyl-2,3-dihydro-1H-isoindol-5-yl)methyl]-12-[(4-methyl-1H-pyrazol-1-yl)methyl]-15-oxatetracyclo [6.6.1.0^2,^7.0^9,1^4]-pentadeca-2,4,6,9,11,13-hexaene-4-carboxamide] was tested. Which IC50 did it give?
**A.** The IC50 was 72.4 nM.

**Q.** `Cc1cc(CNC(=O)c2ccc3c(c2)C2OC3c3ccc(-c4ccc(F)cc4F)cc32)c(C)nc1N` (racemic) [Example 166, (±)-N-[(6-amino-2,5-dimethylpyridin-3-yl)-methyl]-12-(2,4-difluorophenyl)-15-oxatetracyclo[6.6.1.0^2,^7.0^9,1^4] pentadeca-2,4,6,9,11,13-hexaene-4-carboxamide] was tested. Which IC50 did it give?
**A.** Its IC50 is 6760 nM.

**Q.** How did the IC50 turn out when `COc1ccncc1-c1ccc2c(c1)C1OC2c2ccc(C(=O)NCc3c(C)cc(N)nc3C)cc21` (racemic) [Example 167, (±)-N-[(6-amino-2,4-dimethylpyridin-3-yl)-methyl]-12-(4-methoxypyridin-3-yl)-15-oxatetracyclo[6.6.1.0^2,^7.0^9,1^4] pentadeca-2,4,6,9,11,13-hexaene-4-carboxamide] was run?
**A.** Its IC50 is 115 nM.

**Q.** Which IC50 does the source give for `Nc1cc(CNC(=O)c2ccc3c(c2)C2OC3c3ccc(-c4ccc(F)cc4F)cc32)ccn1` (racemic) [Example 168, (±)-N-[(2-aminopyridin-4-yl)methyl]-12-(2,4-difluorophenyl)-15-oxatetracyclo[6.6.1.0^2,^7.0^9,1^4]-pentadeca-2,4,6,9,11,13-hexaene-4-carboxamide] here?
**A.** Its IC50 is 20000 nM.

**Q.** Which IC50 does the source give for `Cc1cc(N)nc(C)c1CNC(=O)c1ccc2c(c1)C1OC2c2ccc(-c3cc(F)c(F)cc3F)cc21` (racemic) [Example 169, (±)-N-[(6-amino-2,4-dimethylpyridin-3-yl)-methyl]-12-(2,4,5-trifluorophenyl)-15-oxatetra-cyclo [6.6.1.0^2,^7.0^9,1^4]pentadeca-2,4,6,9,11,13-hexaene-4-carboxamide] here?
**A.** The IC50 was 34.7 nM.

**Q.** How did the IC50 turn out when `CCCc1cc(N)nc(C)c1CNC(=O)c1ccc2c(c1)C1OC2c2ccc(-c3ccc(F)cc3F)cc21` (racemic) [Example 172, (±)-N-[(6-amino-2-methyl-4-propylpyridin-3-yl)methyl]-12 (2,4-difluorophenyl)-15-oxatetracyclo[6.6.1.0^2,^7.0^9,1^4] pentadeca-2,4,6,9,11,13-hexaene-4-carboxamide] was run?
**A.** Its IC50 is 10 nM.

**Q.** `Cc1nc(N)cc(C(C)C)c1CNC(=O)c1ccc2c(c1)C1OC2c2ccc(-c3ccc(F)cc3F)cc21` (racemic) [Example 173, (±)-N-{[6-amino-2-methyl-4-(propan-2-yl)pyridin-3-yl]methyl}-12-(2,4-difluorophenyl)-15-oxatetra-cyclo[6.6.1.0^2,^7.0^9,1^4]pentadeca-2,4,6,9,11,13-hexaene-4-carboxamide] was tested. Which IC50 did it give?
**A.** The IC50 was 3.02 nM.

**Q.** Which IC50 does the source give for `Cc1nc(N)cc(C2CC2)c1CNC(=O)c1ccc2c(c1)C1OC2c2ccc(-c3ccc(F)cc3F)cc21` (racemic) [Example 180, (±)-N-[(6-amino-4-cyclopropyl-2-methylpyridin-3-yl)methyl]-12-(2,4-difluorophenyl)-15-oxatetracyclo[6.6.1.0^2,^7.0^9,1^4] pentadeca-2,4,6,9,11,13-hexaene-4-carboxamide] here?
**A.** The IC50 was 11 nM.

**Q.** Which IC50 does the source give for `Cc1cc(N)nc(C)c1CNC(=O)c1ccc2c(c1)C1OC2c2ccc(C(=O)c3ccccc3)cc21` (racemic) [Example 188, (±)-N-[(6-amino-2,4-dimethylpyridin-3-yl)methyl]-12-benzoyl-15-oxatetracyclo-[6.6.1.0^2,^7.0^9,1^4]pentadeca-2,4,6,9,11,13-hexaene-4-carboxamide] here?
**A.** The IC50 was 10 nM.

**Q.** `N=C(N)c1ccc(CNC(=O)c2ccc3c(c2)C2OC3c3ccc(-c4ccccc4)cc32)cc1` (racemic) [Example 189, (±)-N-[(4-carbamimidoylphenyl)methyl]-12-phenyl-15-oxatetracyclo[6.6.1.0^2,^7.0^9,1^4]-pentadeca-2,4,6,9,11,13-hexaene-4-carboxamide] was tested. Which IC50 did it give?
**A.** The IC50 was 4.57 nM.

**Q.** Which IC50 does the source give for `CN(C)C(=NC(=N)c1ccc(CNC(=O)c2ccc3c(c2)C2OC3c3ccc(-c4ccccc4)cc32)cc1)N(C)C` (racemic) [Example 190, (±)-N-{[4-({[bis(dimethylamino)methylidene]-amino}methanimidoyl)phenyl]methyl}-12-phenyl-15-oxatetracyclo[6.6.1.0^2,^7.0^9,1^4] pentadeca-2,4,6,9,11,13-hexaene-4-carboxamide] here?
**A.** The IC50 was 129 nM.

**Q.** For `N/C(=N\O)c1ccc(CNC(=O)c2ccc3c(c2)C2OC3c3ccc(-c4ccc(F)cc4F)cc32)cc1F` (racemic) [Example 197, (±)-12-(2,4-difluorophenyl)-N-({3-fluoro-4-[N′-hydroxycarbamimidoyl]phenyl}methyl)-15-oxatetracyclo[6.6.1.0^2,^7.0^9,1^4] pentadeca-2,4,6,9,11,13-hexaene-4-carboxamide], which IC50 is on record?
**A.** The IC50 was 100000 nM.

**Q.** For `N=C(N)c1ccc(CNC(=O)c2ccc3c(c2)C2OC3c3ccc(-c4ccc(F)cc4F)cc32)cc1F` (racemic) [Example 198, (±)-N-[(4-carbamimidoyl-3-fluorophenyl)methyl]-12-(2,4-difluorophenyl)-15-oxatetracyclo-[6.6.1.0^2,^7.0^9,1^4]pentadeca-2,4,6,9,11,13-hexaene-4-carboxamide], which IC50 is on record?
**A.** Its IC50 is 20.9 nM.

**Q.** Which IC50 does the source give for `CC(=O)N1C2c3ccc(C(=O)NCc4c(C)cc(N)nc4C)cc3C1c1cc(-c3ccc(F)cc3F)ccc12` (racemic) [Example 209, (±)-15-acetyl-N-[(6-amino-2,4-dimethylpyridin-3-yl)methyl]-12-(2,4-difluorophenyl)-15-azatetracyclo[6.6.1.0^2,^7.0^9,1^4] pentadeca-2,4,6,9,11,13-hexaene-4-carboxamide and (±)-15-acetyl-N-[(6-amino-2,4-dimethylpyridin-3-yl)methyl]-11-(2,4-difluorophenyl)-15-azatetracyclo[6.6.1.0^2,^7.0^9,1^4] pentadeca-2,4,6,9,11,13-hexaene-4-carboxamide] here?
**A.** The IC50 was 3470 nM.

**Q.** For `CCc1cc2c(cc1CC)C1OC2c2ccc(C(=O)NCc3c(C)cc(N)nc3C)cc21` (racemic) [Example 303, (±)-N-[(6-amino-2,4-dimethyl-pyridin-3-yl)methyl]-11,12-diethyl-15-oxatetracyclo [6.6.1.0^2,^7.0^9,1^4]pentadeca-2,4,6,9(14),10,12-hexaene-4-carboxamide], which IC50 is on record?
**A.** Its IC50 is 209 nM.

**Q.** `Cc1cc2c(cc1C)C1OC2c2ccc(C(=O)NCc3c(C)cc(N)nc3C)cc21` (racemic) [Example 308, (±)-N-[(6-amino-2,4-dimethyl-pyridin-3-yl)methyl]-11,12-dimethyl-15-oxatetracyclo [6.6.1.0^2,^7.0^9,1^4]pentadeca-2,4,6,9(14),10,12-hexaene-4-carboxamide] was tested. Which IC50 did it give?
**A.** Its IC50 is 224 nM.

**Q.** How did the IC50 turn out when `Cc1cc(N)nc(C)c1CNC(=O)c1ccc2c(c1)C1OC2c2cc(C3CC3)c(C3CC3)cc21` (racemic) [Example 311, (±)-N-[(6-amino-2,4-dimethyl-pyridin-3-yl)-methyl]-11,12-dicyclopropyl-15-oxatetracyclo [6.6.1.0^2,^7.0^9,1^4]pentadeca-2,4,6,9,11,13-hexaene-4-carboxamide] was run?
**A.** The IC50 was 32.4 nM.

**Q.** With `Cc1cc(N)nc(C)c1CNC(=O)c1ccc2c(c1)C1OC2c2cc(-c3ccccc3)c(-c3ccccc3)cc21` (racemic) [Example 314, (±)-N-[(6-amino-2,4-dimethyl-pyridin-3-yl)-methyl]-11,12-diphenyl-15-oxatetracyclo-[6.6.1.0^2,^7.0^9,1^4]pentadeca-2,4,6,9,11,13-hexaene-4-carboxamide] as the compound, how does the IC50 read?
**A.** The IC50 was 871 nM.

**Q.** How did the IC50 turn out when `CCc1cc2c(cc1CC)C1OC2c2ccc(C(=O)NCc3ccc(C(=N)N)cc3)cc21` (racemic) [Example 315, (±)-N-[(4-carbamimidoylphenyl)methyl]-11,12-diethyl-15-oxatetracyclo[6.6.1.0^2,^7.0^9,1^4]-pentadeca-2,4,6,9(14),10,12-hexaene-4-carboxamide] was run?
**A.** The IC50 was 1.82 nM.

**Q.** Which IC50 does the source give for `N=C(N)c1ccc(CNC(=O)c2ccc3c(c2)C2OC3c3cc(C4CC4)c(C4CC4)cc32)cc1` (racemic) [Example 316, (±)-N-[(4-carbamimidoyl-phenyl)methyl]-11,12-dicyclopropyl-15-oxatetracyclo [6.6.1.0^2,^7.0^9,1^4]-pentadeca-2,4,6,9,11,13-hexaene-4-carboxamide] here?
**A.** Its IC50 is 4.9 nM.

**Q.** `Cc1cc2c(cc1C)C1OC2c2ccc(C(=O)NCc3ccc(C(=N)N)cc3)cc21` (racemic) [Example 317, (±)-N-[(4-carbamimidoylphenyl)methyl]-11,12-dimethyl-15-oxatetracyclo[6.6.1.0^2,^7.0^9,1^4]-pentadeca-2,4,6,9(14),10,12-hexaene-4-carboxamide] was tested. Which IC50 did it give?
**A.** Its IC50 is 28.8 nM.

**Q.** With `Cc1cc(N)nc(C)c1CNC(=O)c1ccc2c(c1)C1OC2c2cc3c(cc21)C(=O)N(C)C3=O` (racemic) [Example 318, (±)-N-[(6-amino-2,4-dimethyl-pyridin-3-yl)methyl]-6-methyl-5,7-dioxo-18-oxa-6-azapentacyclo [9.6.1.0^2,1^0.0^4,^8.0^12,1^4]octadeca-2(10),3,8,12,14,16-hexaene-14-carboxamide] as the compound, how does the IC50 read?
**A.** Its IC50 is 17.4 nM.

**Q.** `COC(=O)c1cc2c(cc1C(=O)OC)C1OC2c2ccc(C(=O)NCc3c(C)cc(N)nc3C)cc21` (racemic) [Example 319, (±)-4,5-dimethyl 11-{[(6-amino-2,4-dimethyl-pyridin-3-yl)methyl]carbamoyl}-15-oxatetracyclo[6.6.1.0^2,^7.0^9,1^4] pentadeca-2(7),3,5,9,11,13-hexaene-4,5-dicarboxylate] was tested. Which IC50 did it give?
**A.** Its IC50 is 2450 nM.

**Q.** With `Cc1cc(N)nc(C)c1CNC(=O)c1ccc2c(c1)C1OC2c2cc3c(O)nnc(O)c3cc21` (racemic) [Example 320, (±)-N-[(6-amino-2,4-dimethyl-pyridin-3-yl)methyl]-5,8-dihydroxy-19-oxa-6,7-diazapentacyclo [10.6.1.0^2,^11.0^4,^9.0^13,1^8] nonadeca-2(11),3,5,7,9,13,15,17-octaene-15-carboxamide] as the compound, how does the IC50 read?
**A.** The IC50 was 10200 nM.
